These results are taken from ChEMBL document CHEMBL1143569, “Predicting human serum albumin affinity of interleukin-8 (CXCL8) inhibitors by 3D-QSPR approach” (J Med Chem, 2005).

In this data set the target is albumin (Homo sapiens, UniProt P02768). The experiment in a line: Percentage plasma protein binding towards human serum albumin. To be noted: read-out: PB (converted). It is filed as cell-free.
Chain of albumin (P02768 whole entry): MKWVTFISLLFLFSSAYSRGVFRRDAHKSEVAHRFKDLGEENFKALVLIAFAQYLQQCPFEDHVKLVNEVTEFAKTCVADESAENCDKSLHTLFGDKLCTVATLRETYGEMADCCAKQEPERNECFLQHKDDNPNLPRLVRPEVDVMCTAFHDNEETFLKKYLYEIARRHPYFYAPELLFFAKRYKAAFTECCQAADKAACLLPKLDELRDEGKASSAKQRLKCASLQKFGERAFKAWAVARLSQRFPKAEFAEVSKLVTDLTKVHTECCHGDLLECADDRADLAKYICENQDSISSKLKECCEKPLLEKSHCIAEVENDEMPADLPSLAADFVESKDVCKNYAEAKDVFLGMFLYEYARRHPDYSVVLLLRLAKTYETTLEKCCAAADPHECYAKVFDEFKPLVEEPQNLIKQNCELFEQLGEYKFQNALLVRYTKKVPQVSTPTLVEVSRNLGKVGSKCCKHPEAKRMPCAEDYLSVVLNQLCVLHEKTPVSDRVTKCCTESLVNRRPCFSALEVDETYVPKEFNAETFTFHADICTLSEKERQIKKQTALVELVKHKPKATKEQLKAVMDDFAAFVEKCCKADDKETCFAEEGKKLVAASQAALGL

Take `C[C@@H](C(N)=O)c1ccc(OS(=O)(=O)C(F)(F)F)cc1`: the fraction unbound is 0.08. For `CC(C)NCC(O)c1ccc(NS(C)(=O)=O)cc1` (stereo unspecified) [SOTALOL] the value was 0.825. Next, `CC(C)Cc1ccc([C@@H](C)C(=O)NCCCN(C)C)cc1`: 0.249; `C[C@@H](C(=O)NCCN1CCCC1)c1ccc(OS(=O)(=O)C(F)(F)F)cc1`: 0.3; `CC(C)Cc1ccc([C@@H](C)C(=O)NCCCN2CCCCC2)cc1`: 0.149. Take `C[C@@H](C(=O)NS(C)(=O)=O)c1ccc(OS(=O)(=O)C(F)(F)F)cc1` [LADARIXIN]: the fraction unbound was 0.002.

For `CC(C)Cc1ccc([C@@H](C)C(=O)NS(C)(=O)=O)cc1` [REPARIXIN], the fraction unbound is 0.001.

In the case of `CC(Cc1ccc([C@@H](C)C(=O)NS(C)(=O)=O)cc1)C(=O)O` (stereo partly specified), the fraction unbound is 0.298. For `COc1ccc2c(c1)CN(c1ccc(C(C)C(=O)O)cc1)C2=O` (stereo unspecified) the value was 0.02; for `CC(C)Cc1ccc([C@@H](C)C(=O)NCCOCCO)cc1`, 0.169. As to `CC1=C(CC(=O)O)c2cc(F)ccc2/C1=C\c1ccc([S+](C)[O-])cc1` (stereo unspecified), the fraction unbound is 0.06. For `CC(C)Cc1ccc([C@@H](C)C(=O)N[C@H](C)C(=O)O)cc1` the value was 0.04; for `Cc1cc(CC(=O)O)n(C)c1C(=O)c1ccc(Cl)cc1` [ZOMEPIRAC], 0.015. Next, `C[C@@H](C(=O)NCCCN1CCCC1)c1ccc(OS(=O)(=O)C(F)(F)F)cc1`: 0.38. Regarding `CCCNC(=O)NS(=O)(=O)c1ccc(Cl)cc1` [CHLORPROPAMIDE], the fraction unbound is 0.04.

As to `Cc1ccc(S(=O)(=O)NC(=O)NN2CCCCCC2)cc1` [TOLAZAMIDE], the fraction unbound was 0.03. For `CC(C(=O)O)c1ccc(-c2ccccc2)c(F)c1` (stereo unspecified) [FLURBIPROFEN] the value was 0.005; for `Cc1ccc(C(=O)c2ccc(CC(=O)O)n2C)cc1` [TOLMETIN], 0.004. Regarding `O=C(c1ccccc1)c1ccc2n1CCC2C(=O)O` (stereo unspecified) [KETOROLAC], the fraction unbound was 0.008. Regarding `NS(=O)(=O)c1cc2c(cc1Cl)NCNS2(=O)=O` [HYDROCHLOROTHIAZIDE], the fraction unbound is 0.42. `CS(=O)(=O)Nc1ccc([N+](=O)[O-])cc1Oc1ccccc1` [NIMESULIDE]: the fraction unbound was 0.1.
